Legend:
Pcy/DBA mice = test: Efficacy in Pcy/DBA mouse model of PKD, alone and with tolvaptan; type: in vivo;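 note: dosing began at 6 weeks of age, with endpoints collected 7 days after the last dose and PBS-injected wild-type DBA/2J mice as the normal reference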
Method: The efficacy of RG-NG-1015 was also evaluated in the Pcy/DBA mouse model of PKD alone and in combination with tolvaptan.
As outlined in FIGS. 6A and 6B, five groups of male Pcy/DBA mice (n=13 per treatment group) were treated subcutaneously with PBS or RG-NG-1015 at 25, 5, 1, or 0.2 mg/kg once every two weeks (Q2W). Two groups of male Pcy/DBA mice (n=13 per group) were also treated with RG-NG-1015 at 50 mg/kg once every four weeks (Q4W) or at 12.5 mg/kg once weekly (QW). Another four groups of male Pcy/DBA mice (n=13 per group) were treated subcutaneously with PBS or RG-NG-1015 at 25, 5, or 1 mg/kg Q2W in combination with tolvaptan at 0.3% (w/w chow) ad libitum. A group of male WT-BDA/2J mice received subcutaneous injections of PBS Q2W was included in the study as a normal range reference. Mice were randomized into treatment groups at 5 weeks of age, and treatment started at 6 weeks of age for 17 weeks and were sacrificed 7 days after the final treatment. Kidney weight, body weight, kidney cyst index, urine Ngal-to-Creatinine ratio (Ngal/Cr) were measured.

AMPA glutamate receptor = test: Patch clamp activity (RGLS4326, off-target follow-up); type: cell-based
Method: To identify potential candidates for off-target pharmacology, a panel of 174 targets including G-protein coupled receptors, transporters, ion channels, nuclear receptors, and cytokine receptors was evaluated in vitro for possible interactions with RGLS4326. […] AMPA receptors are ion channels on excitatory synapses in the CNS that mediate fast excitatory neurotransmission and, therefore, are key components of all neuronal networks. Such an interaction with the AMPA receptor could explain the CNS-mediated findings observed at high doses of RGLS4326 in nonclinical toxicology models.

miR-17 = settings: mIMCD3, mouse, Normal; value reported by Lee et al., Nat. Commun., 2019; read-out: miR-17 PD-Sig (EC50); cited from earlier work
C57Bl/6J male mice = test: ICV maximum tolerated dose study, Study 1; type: in vivo, mouse; settings: 7-day
Method: Compounds (RG-NG-1017, RGLS4326, RG-NG-1001) were evaluated in a pilot maximum tolerated dose (MTD) study (discussed below). RG-NG-1017, RGLS4326 and RG-NG-1001 were initially evaluated at 4 dose-levels each. RG-NG-1017 was included for evaluation as a non-AMPA-R binding compound, as compared to RGLS4326 and RG-NG-1001, which bind AMPA-R. C57Bl/6J male mice (Jackson Laboratories), age 6-7 weeks, were used in this study. Mice were assigned randomly to treatment groups, and the study was blinded. Animals were allowed to acclimate for no less than 5 days and housed on a 12 hr light/dark cycle (lights on 7:00 AM). No more than 4 mice were house in each cage in a ventilated cage rack system. The diet consisted of standard rodent chow and water ad libitum.
The following parameters were used for this study: • 1. Route(s) of administration: intracerebroventricular (ICV) dosing of RG-NG-1017, RG-NG-1001, RGLS4326 • 2. Dose Volume(s): 4 μL • 3. Formulation(s): vehicle, Ca^2+ and Mg^2+ free dPBS • 4. Dose Frequency: Once • 5. Study duration: 8 Days • 6. Number of Groups: 3 • 7. Number of animals per group: (2-4 each group) • 8. Total number of animals: […]
For the ICV administration, mice were anesthetized and positioned for injections. The skin over the skull was incised, and a small hole was made in the skull above the target using a microdrill. The stereotactic coordinates were anteroposterior (AP), −0.4 mm; mediolateral (ML), +/−1.0-1.5 mm; dorsoventral (DV), −3.0 mm from the bregma for injection into both the right and left lateral cerebral ventricles (Hironaka et al, 2015). Animals were injected unilaterally with 4 μl into the right lateral cerebral ventricle. Compounds were injected over 1-2 min, and the needle was left in place for 0.5-1 min prior to withdrawal. The incision was closed with sutures, wound clips, or VetBond.
Following ICV treatment (Day 0), animals were monitored for 7 days in which daily health checks, body weight, and mortality was recorded. On Day 7, brain and kidney were collected and fixed (10% formalin) and stored pending histology.

[1] = RG-NG-1015 0.2 mg/kg SC Q2W, 17 weeks
[2] = RG-NG-1015 1 mg/kg SC Q2W + 0.3% Tolvaptan in chow
[3] = RG-NG-1015 1 mg/kg SC Q2W, 17 weeks
[4] = RG-NG-1015 5 mg/kg SC Q2W + 0.3% Tolvaptan in chow
[5] = RG-NG-1015 5 mg/kg SC Q2W, 17 weeks
[6] = RG-NG-1015 12.5 mg/kg SC QW, 17 weeks
[7] = RG-NG-1015 25 mg/kg SC Q2W + 0.3% Tolvaptan in chow
[8] = RG-NG-1015 25 mg/kg SC Q2W, 17 weeks
[9] = RG-NG-1015 50 mg/kg SC Q4W, 17 weeks

ASGSCMAFCFUFUMUSAS [RG-NG-1015]
Mean Cystic Area (Pcy/DBA mice; [1]): 47.09%
Mean Cystic Area % Inhibition (Pcy/DBA mice; [1]): 24.8%
Mean KW/BW (Pcy/DBA mice; [1]): 78 mg/g
Mean KW/BW % Inhibition (Pcy/DBA mice; [1]): 18.7%
Mean Urine Ngal/Cr (Pcy/DBA mice; [1]): 18.38 mg/mg
Mean Urine Ngal/Cr % Inhibition (Pcy/DBA mice; [1]): 13.5%
Mean Cystic Area (Pcy/DBA mice; [2]): 41.91%
Mean Cystic Area % Inhibition (Pcy/DBA mice; [2]): 34.3%
Mean Cystic Area Bliss Analysis (Pcy/DBA mice; [2]): <Additive
Mean KW/BW (Pcy/DBA mice; [2]): 47.1 mg/g
Mean KW/BW % Inhibition (Pcy/DBA mice; [2]): 62.0%
Mean KW/BW Bliss Analysis (Pcy/DBA mice; [2]): Synergistic
Mean Urine Ngal/Cr (Pcy/DBA mice; [2]): 11.16 mg/mg
Mean Urine Ngal/Cr % Inhibition (Pcy/DBA mice; [2]): 49.8%
Mean Urine Ngal/Cr Bliss Analysis (Pcy/DBA mice; [2]): <Additive
Mean Cystic Area (Pcy/DBA mice; [3]): 50.58%
Mean Cystic Area % Inhibition (Pcy/DBA mice; [3]): 18.4%
Mean KW/BW (Pcy/DBA mice; [3]): 82.4 mg/g
Mean KW/BW % Inhibition (Pcy/DBA mice; [3]): 12.5%
Mean Urine Ngal/Cr (Pcy/DBA mice; [3]): 15.18 mg/mg
Mean Urine Ngal/Cr % Inhibition (Pcy/DBA mice; [3]): 29.6%
Mean Cystic Area (Pcy/DBA mice; [4]): 37.47%
Mean Cystic Area % Inhibition (Pcy/DBA mice; [4]): 42.5%
Mean Cystic Area Bliss Analysis (Pcy/DBA mice; [4]): <Additive
Mean KW/BW (Pcy/DBA mice; [4]): 45.6 mg/g
Mean KW/BW % Inhibition (Pcy/DBA mice; [4]): 64.1%
Mean KW/BW Bliss Analysis (Pcy/DBA mice; [4]): Synergistic
Mean Urine Ngal/Cr (Pcy/DBA mice; [4]): 5.84 mg/mg
Mean Urine Ngal/Cr % Inhibition (Pcy/DBA mice; [4]): 76.6%
Mean Urine Ngal/Cr Bliss Analysis (Pcy/DBA mice; [4]): Additive
Mean Cystic Area (Pcy/DBA mice; [5]): 44.58%
Mean Cystic Area % Inhibition (Pcy/DBA mice; [5]): 29.4%
Mean KW/BW (Pcy/DBA mice; [5]): 70 mg/g
Mean KW/BW % Inhibition (Pcy/DBA mice; [5]): 29.9%
Mean Urine Ngal/Cr (Pcy/DBA mice; [5]): 14.65 mg/mg
Mean Urine Ngal/Cr % Inhibition (Pcy/DBA mice; [5]): 32.3%
Mean Cystic Area (Pcy/DBA mice; [6]): 44.99%
Mean Cystic Area % Inhibition (Pcy/DBA mice; [6]): 28.7%
Mean KW/BW (Pcy/DBA mice; [6]): 74.5 mg/g
Mean KW/BW % Inhibition (Pcy/DBA mice; [6]): 23.6%
Mean Urine Ngal/Cr (Pcy/DBA mice; [6]): 8.82 mg/mg
Mean Urine Ngal/Cr % Inhibition (Pcy/DBA mice; [6]): 61.6%
Mean Cystic Area (Pcy/DBA mice; [7]): 38.61%
Mean Cystic Area % Inhibition (Pcy/DBA mice; [7]): 40.4%
Mean Cystic Area Bliss Analysis (Pcy/DBA mice; [7]): <Additive
Mean KW/BW (Pcy/DBA mice; [7]): 42.2 mg/g
Mean KW/BW % Inhibition (Pcy/DBA mice; [7]): 68.9%
Mean KW/BW Bliss Analysis (Pcy/DBA mice; [7]): Synergistic
Mean Urine Ngal/Cr (Pcy/DBA mice; [7]): 5.04 mg/mg
Mean Urine Ngal/Cr % Inhibition (Pcy/DBA mice; [7]): 80.6%
Mean Urine Ngal/Cr Bliss Analysis (Pcy/DBA mice; [7]): Additive
Mean Cystic Area (Pcy/DBA mice; [8]): 46.46%
Mean Cystic Area % Inhibition (Pcy/DBA mice; [8]): 26.0%
Mean KW/BW (Pcy/DBA mice; [8]): 66.9 mg/g
Mean KW/BW % Inhibition (Pcy/DBA mice; [8]): 34.3%
Mean Urine Ngal/Cr (Pcy/DBA mice; [8]): 11.36 mg/mg
Mean Urine Ngal/Cr % Inhibition (Pcy/DBA mice; [8]): 48.8%
Mean Cystic Area (Pcy/DBA mice; [9]): 47.35%
Mean Cystic Area % Inhibition (Pcy/DBA mice; [9]): 24.3%
Mean KW/BW (Pcy/DBA mice; [9]): 67.1 mg/g
Mean KW/BW % Inhibition (Pcy/DBA mice; [9]): 34.0%
Mean Urine Ngal/Cr (Pcy/DBA mice; [9]): 9.32 mg/mg
Mean Urine Ngal/Cr % Inhibition (Pcy/DBA mice; [9]): 59.1%

ASGSCMAFCFUFUMUSGS [RGLS4326, reference compound]
functional IC50 based on patch clamp activity (AMPA glutamate receptor): 0.9 to 1.8 µg/mL
IC50 (AMPA glutamate receptor; read-out: functional IC50 based on patch clamp activity): 300 to 600 nM
EC50 (miR-17): 77.2 nM
Mortality/total number of mice (C57Bl/6J male mice; single ICV 2.5 μg): 0/3
Mortality/total number of mice (C57Bl/6J male mice; single ICV 5 μg): 2/4
Mortality/total number of mice (C57Bl/6J male mice; single ICV 10 μg): 3/4
Mortality/total number of mice (C57Bl/6J male mice; single ICV 25 μg): 3/3
Mortality/total number of mice (C57Bl/6J male mice; single ICV 50 μg): 3/3
Mortality/total number of mice (C57Bl/6J male mice; single ICV 100 μg): 2/2
Mortality/total number of mice (C57Bl/6J male mice; single ICV 300 μg): 2/2
Mortality/total number of mice (C57Bl/6J male mice; single ICV 600 μg): 2/2

Source: US12559750B2, “Methods and compositions for treatment of polycystic kidney disease” (Regulus Therapeutics Inc., priority 2021, dated 2026)
